Results on 23 compounds are retold here after patent publication US11124510B2, “Alkyl chain modified imidazoquinoline TLR7/8 agonist compounds and uses thereof” (Dynavax Technologies Corporation, priority 2017, dated 2021).

The target in one experiment is TLR8 (Homo sapiens (Human), UniProt Q9NR97). Nature of the experiment: TLR8 agonist bioactivity: induction of TNFα protein in monocyte cultures (ELISA, 24 h). The class given is cell-based. The conditions noted are these: for EC50: TNFα induction, human monocytes, 24 hours; for fold loss of TLR8 agonist potency compared to Compound No. 63-00 (IMDQ): less potent than IMDQ; for TLR8 (% of Compound No. 63-00 EC50 Value): EC50 expressed as percentage of EC50 of Compound No. 63-00; for fold increase of TLR8 agonist potency compared to Compound No. 63-00 (IMDQ): more potent than IMDQ. The protocol: Monocytes were magnetically isolated from PBMCs, prepared as described above, following labeling with CD14 microbeads (Miltenyi Biotec, San Diego Calif.), according to the manufacturer's instructions. […] Culture supernatants were collected and tumor necrosis factor alpha (TNFα) protein levels were measured by ELISA (MabTech, Cincinnati Ohio), according to the manufacturer's instructions.
TLR8, sequence (Q9NR97 27-1041): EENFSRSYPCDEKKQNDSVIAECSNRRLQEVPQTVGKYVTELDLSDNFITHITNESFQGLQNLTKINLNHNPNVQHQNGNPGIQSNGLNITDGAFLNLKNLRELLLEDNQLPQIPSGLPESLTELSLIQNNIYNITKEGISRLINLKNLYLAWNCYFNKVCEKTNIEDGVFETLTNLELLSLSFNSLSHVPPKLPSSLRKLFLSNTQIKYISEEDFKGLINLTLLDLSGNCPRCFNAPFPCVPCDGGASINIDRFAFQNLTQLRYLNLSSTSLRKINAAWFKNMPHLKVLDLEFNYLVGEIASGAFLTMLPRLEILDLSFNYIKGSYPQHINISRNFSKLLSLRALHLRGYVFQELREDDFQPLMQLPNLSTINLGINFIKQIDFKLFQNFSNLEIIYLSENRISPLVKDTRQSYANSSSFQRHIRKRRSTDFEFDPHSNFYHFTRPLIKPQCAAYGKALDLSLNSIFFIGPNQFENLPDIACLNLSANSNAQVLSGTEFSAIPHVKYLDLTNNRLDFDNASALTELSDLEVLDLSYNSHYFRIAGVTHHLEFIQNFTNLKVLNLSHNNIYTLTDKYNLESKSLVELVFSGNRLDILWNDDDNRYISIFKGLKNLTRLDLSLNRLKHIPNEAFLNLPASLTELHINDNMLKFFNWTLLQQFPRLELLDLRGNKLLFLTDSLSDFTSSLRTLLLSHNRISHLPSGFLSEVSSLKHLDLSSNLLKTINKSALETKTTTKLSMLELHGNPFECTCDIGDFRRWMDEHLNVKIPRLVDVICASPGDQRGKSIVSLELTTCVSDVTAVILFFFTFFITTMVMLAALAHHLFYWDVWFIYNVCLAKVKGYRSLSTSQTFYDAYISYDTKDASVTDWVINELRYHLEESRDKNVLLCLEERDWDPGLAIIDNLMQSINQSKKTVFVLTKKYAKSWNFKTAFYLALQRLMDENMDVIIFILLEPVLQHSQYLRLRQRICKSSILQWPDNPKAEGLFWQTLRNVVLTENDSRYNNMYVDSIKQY

In the next experiment the target is TLR7 (Homo sapiens (Human), UniProt Q9NYK1). The experiment in a line: TLR7 agonist bioactivity: induction of IFNα protein in pDC-enriched PBMC cultures (ELISA, 24 h). In kind it is cell-based. To be noted: for EC50: IFNα induction, pDC-enriched human PBMC, 24 hours; for fold loss of TLR7 agonist potency compared to Compound No. 63-00 (IMDQ): less potent than IMDQ; for TLR7 (% of Compound No. 63-00 EC50 Value): EC50 expressed as percentage of EC50 of Compound No. 63-00. On the procedure: Plasmacytoid dendritic cell (pDC)—enriched peripheral blood mononuclear cells (PBMCs) were prepared from the blood of a series of human donors (3-5 donors/experiment). PBMCs were isolated using Ficoll-Paque Premium® (GE Healthcare, Chicago Ill.) using methods well known to those in the art. pDCs were magnetically isolated from the total recovered PBMC population using CD304 (BDCA-4/Neuropilin-1) microbeads (Miltenyi Biotec, San Diego Calif.), according to the manufacturer's instructions. Isolated pDCs were then added back to between 1 and 2×10^8 of the corresponding donor's PBMCs for relative enrichment of this cell type. […] Culture supernatants were collected and interferon-alpha (IFNα) protein levels were measured by ELISA (MabTech, Cincinnati Ohio), according to the manufacturer's instructions.
TLR7, sequence (Q9NYK1 27-1049): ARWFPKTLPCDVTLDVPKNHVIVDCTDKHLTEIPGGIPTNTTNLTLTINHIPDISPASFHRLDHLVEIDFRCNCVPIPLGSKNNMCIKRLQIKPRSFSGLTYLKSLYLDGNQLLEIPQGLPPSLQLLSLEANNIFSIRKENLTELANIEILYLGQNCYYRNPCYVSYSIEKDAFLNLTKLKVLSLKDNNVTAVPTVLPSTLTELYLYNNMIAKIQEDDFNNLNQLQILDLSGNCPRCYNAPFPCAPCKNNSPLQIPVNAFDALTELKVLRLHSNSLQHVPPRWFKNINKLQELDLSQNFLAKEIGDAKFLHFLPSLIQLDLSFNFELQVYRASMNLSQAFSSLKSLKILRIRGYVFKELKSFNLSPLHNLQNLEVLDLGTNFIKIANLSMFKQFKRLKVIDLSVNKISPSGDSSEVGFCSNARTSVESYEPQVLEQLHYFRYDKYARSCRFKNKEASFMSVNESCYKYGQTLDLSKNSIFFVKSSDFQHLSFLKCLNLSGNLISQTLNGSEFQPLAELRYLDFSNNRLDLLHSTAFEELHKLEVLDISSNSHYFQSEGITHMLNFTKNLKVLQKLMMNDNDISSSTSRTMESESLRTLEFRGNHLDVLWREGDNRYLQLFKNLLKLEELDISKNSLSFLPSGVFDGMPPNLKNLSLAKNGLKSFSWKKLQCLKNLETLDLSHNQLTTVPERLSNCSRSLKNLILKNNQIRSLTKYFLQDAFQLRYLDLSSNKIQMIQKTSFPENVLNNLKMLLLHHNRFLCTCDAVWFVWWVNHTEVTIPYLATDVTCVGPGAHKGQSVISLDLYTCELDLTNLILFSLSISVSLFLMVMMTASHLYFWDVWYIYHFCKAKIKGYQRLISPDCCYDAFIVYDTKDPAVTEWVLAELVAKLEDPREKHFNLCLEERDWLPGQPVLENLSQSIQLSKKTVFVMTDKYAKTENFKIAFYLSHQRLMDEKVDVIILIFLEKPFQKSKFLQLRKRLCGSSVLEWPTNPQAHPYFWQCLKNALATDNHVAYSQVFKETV
On the technique in general: In an ELISA, binding on a coated surface is turned into a signal by an enzyme label.

The term EC50 denotes the concentration giving half of the maximal effect. A higher EC50 goes with a need for much substance. `CCCCCCCCC(=O)NCc1ccc(Cn2c(CCCC)nc3c(N)nc4ccccc4c32)cc1` [Compound No. 63-05, N-(4-((4-amino-2-butyl-1H-imidazo[4,5-c]quinolin-1-yl)methyl)benzyl)nonanamide]: the EC50 on TLR8 came to 2170 nM; on TLR7, 3 nM. The “fold loss of TLR8 agonist potency compared to Compound No. 63-00 (IMDQ)” value at TLR8 is reported as 10-26 fold.

On to `CCCCCCCCCC(=O)NCc1ccc(Cn2c(CCCC)nc3c(N)nc4ccccc4c32)cc1` [Compound No. 63-06, N-(4-((4-amino-2-butyl-1H-imidazo[4,5-c]quinolin-1-yl)methyl)benzyl)decanamide], for which the EC50 on TLR8 turned out to be 2750 nM; on TLR7 it was 2 nM. Also, the “fold loss of TLR8 agonist potency compared to Compound No. 63-00 (IMDQ)” value on TLR8 was 10-26 fold.

For the compound `CCCCCCCCCCC(=O)NCc1ccc(Cn2c(CCCC)nc3c(N)nc4ccccc4c32)cc1` [Compound No. 63-07, N-(4-((4-amino-2-butyl-1H-imidazo[4,5-c]quinolin-1-yl)methyl)benzyl)undecanamide], at TLR8, the response was half-maximal at 2640 nM (EC50) and the “fold loss of TLR8 agonist potency compared to Compound No. 63-00 (IMDQ)” value is recorded as 10-26 fold. At TLR7, this compound came in with a concentration for a half-maximal effect (EC50) of 1 nM.

For `CCCCCCCCCCCC(=O)NCc1ccc(Cn2c(CCCC)nc3c(N)nc4ccccc4c32)cc1` [Compound No. 63-08, N-(4-((4-amino-2-butyl-1H-imidazo[4,5-c]quinolin-1-yl)methyl)benzyl)dodecanamide], on TLR8, the 50% effective concentration (EC50) was found to be 1270 nM and the “fold loss of TLR8 agonist potency compared to Compound No. 63-00 (IMDQ)” value is given as “did not lose as much agonist activity”. On TLR7, a half-maximal response (EC50) required 3 nM.

Turning to `CCCCCCCCCCCCC(=O)NCc1ccc(Cn2c(CCCC)nc3c(N)nc4ccccc4c32)cc1` [Compound No. 63-09, N-(4-((4-amino-2-butyl-1H-imidazo[4,5-c]quinolin-1-yl)methyl)benzyl)tridecanamide], on TLR8, the concentration for a half-maximal effect (EC50) came to 970 nM and the “fold loss of TLR8 agonist potency compared to Compound No. 63-00 (IMDQ)” value is given as “did not lose as much agonist activity”. The concentration giving a half-maximal response (EC50) on TLR7 was 2 nM.

`CCCCCCCNCc1ccc(Cn2c(CCCC)nc3c(N)nc4ccccc4c32)cc1` [Compound No. 63-19, 2-butyl-1-(4-((heptylamino)methyl)benzyl)-1H-imidazo[4,5-c]quinolin-4-amine]: the EC50 on TLR8 was determined as 752 nM; on TLR7, 24 nM.

Turning to `CCCCCCCCNCc1ccc(Cn2c(CCCC)nc3c(N)nc4ccccc4c32)cc1` [Compound No. 63-20, 2-butyl-1-(4-((octylamino)methyl)benzyl)-1H-imidazo[4,5-c]quinolin-4-amine], the EC50 stood at 1220 nM at TLR8 and 51 nM on TLR7.

For `CCCCCCCCCNCc1ccc(Cn2c(CCCC)nc3c(N)nc4ccccc4c32)cc1` [Compound No. 63-21, 2-butyl-1-(4-((nonylamino)methyl)benzyl)-1H-imidazo[4,5-c]quinolin-4-amine], the figures for the EC50 on TLR8 and on TLR7 were 947 nM and 68 nM, respectively.

Take `CCCCCCCCCCNCc1ccc(Cn2c(CCCC)nc3c(N)nc4ccccc4c32)cc1` [Compound No. 63-22, 2-butyl-1-(4-((decylamino)methyl)benzyl)-1H-imidazo[4,5-c]quinolin-4-amine]: the EC50 stood at 821 nM at TLR8 and 62 nM on TLR7.

Turning to `CCCCCCCCCCCCNCc1ccc(Cn2c(CCCC)nc3c(N)nc4ccccc4c32)cc1` [Compound No. 63-24, 2-butyl-1-(4-((dodecylamino)methyl)benzyl)-1H-imidazo[4,5-c]quinolin-4-amine], the EC50 was determined as 1040 nM at TLR8 and 32 nM on TLR7.

With `CCCCCCCCCCCCCCCCCCNCc1ccc(Cn2c(CCCC)nc3c(N)nc4ccccc4c32)cc1` [Compound No. 63-29, 2-butyl-1-(4-((octadecylamino)methyl)benzyl)-1H-imidazo[4,5-c]quinolin-4-amine], at TLR8, a half-maximal response (EC50) required 2770 nM and the “fold loss of TLR8 agonist potency compared to Compound No. 63-00 (IMDQ)” value is on record as “over 12 fold”. At TLR7, the EC50 was found to be 19 nM and the “fold loss of TLR7 agonist potency compared to Compound No. 63-00 (IMDQ)” value came to 19 fold.

On to `CCCCCCCCCCCCCCCC(=O)NCc1ccc(Cn2c(CCCC)nc3c(N)nc4ccccc4c32)cc1` [Compound No. 63-31, N-(4-((4-amino-2-butyl-1H-imidazo[4,5-c]quinolin-1-yl)methyl)benzyl)palmitamide, reference compound], for which, on TLR8, a half-maximal response (EC50) required 2150 nM and the “fold loss of TLR8 agonist potency compared to Compound No. 63-00 (IMDQ)” value is given as 10-26 fold. At TLR7, the midpoint of the response, the EC50, lay at 3 nM.

For the compound `CCCCCCCCCCCCCCCCNCc1ccc(Cn2c(CCCC)nc3c(N)nc4ccccc4c32)cc1` [Compound No. 63-32, 2-butyl-1-(4-((hexadecylamino)methyl)benzyl)-1H-imidazo[4,5-c]quinolin-4-amine, reference compound], the concentration giving a half-maximal response (EC50) at TLR8 stood at 3100 nM; at TLR7 it was 157 nM.

Consider `CCCCc1nc2c(N)nc3ccccc3c2n1Cc1ccc(CNC(=O)CC2CC2)cc1` [Compound No. 63-34, N-(4-((4-amino-2-butyl-1H-imidazo[4,5-c]quinolin-1-yl)methyl)benzyl)-2-cyclopropylacetamide], for which, on TLR8, the EC50 was determined as 1490 nM and the “fold loss of TLR8 agonist potency compared to Compound No. 63-00 (IMDQ)” value turned out to be 7 fold. In addition, on TLR7, the EC50 stood at 8 nM and the “fold loss of TLR7 agonist potency compared to Compound No. 63-00 (IMDQ)” value came out at 8 fold.

Consider `CCCCc1nc2c(N)nc3ccccc3c2n1Cc1ccc(CNCCC2CCC2)cc1` [Compound No. 63-35, 2-butyl-1-(4-(((2-cyclobutylethyl)amino)methyl)benzyl)-1H-imidazo[4,5-c]quinolin-4-amine], for which, at TLR8, the “TLR8 (% of Compound No. 63-00 EC50 Value)” value is reported as 53% and the concentration for a half-maximal effect (EC50) was 70 nM. Besides, at TLR7, the “TLR7 (% of Compound No. 63-00 EC50 Value)” value is reported as 715% and the response was half-maximal at 12 nM (EC50).

For `CCCCc1nc2c(N)nc3ccccc3c2n1Cc1ccc(CNCCC2CCCC2)cc1` [Compound No. 63-36, 2-butyl-1-(4-(((2-cyclopentylethyl)amino)methyl)benzyl)-1H-imidazo[4,5-c]quinolin-4-amine], at TLR8, the “TLR8 (% of Compound No. 63-00 EC50 Value)” value amounted to 72% and the EC50 was 117 nM. At TLR7, the “TLR7 (% of Compound No. 63-00 EC50 Value)” value is listed as 1,085%, the EC50 came to 11 nM and the “fold loss of TLR7 agonist potency compared to Compound No. 63-00 (IMDQ)” value came out at 10.9 fold.

Regarding `CCCCc1nc2c(N)nc3ccccc3c2n1Cc1ccc(CNCC2CC2)cc1` [Compound No. 63-38, 2-butyl-1-(4-(((cyclopropylmethyl)amino)methyl)benzyl)-1H-imidazo[4,5-c]quinolin-4-amine], the “TLR8 (% of Compound No. 63-00 EC50 Value)” value at TLR8 worked out at 37%. The “TLR7 (% of Compound No. 63-00 EC50 Value)” value on TLR7 is listed as 345%.

With `CCCCc1nc2c(N)nc3ccccc3c2n1Cc1ccc(CNCC2CC2C)cc1` (stereo not shown) [Compound No. 63-39, 2-butyl-1-(4-((((2-methylcyclopropyl)methyl)amino)methyl)benzyl)-1H-imidazo[4,5-c]quinoline-4-amine], the “TLR8 (% of Compound No. 63-00 EC50 Value)” value on TLR8 is on record as 48%. The “TLR7 (% of Compound No. 63-00 EC50 Value)” value on TLR7 is given as 220%.

In the case of `CCCCc1nc2c(N)nc3ccccc3c2n1Cc1ccc(CNCC2CC2(C)C)cc1` (stereo not shown) [Compound No. 63-40, 2-butyl-1-(4-((((2,2-dimethylcyclopropyl)methyl)amino)methyl)benzyl)-1H-imidazo[4,5-c]quinolin-4-amine], the “TLR8 (% of Compound No. 63-00 EC50 Value)” value at TLR8 stood at 51%. The “TLR7 (% of Compound No. 63-00 EC50 Value)” value at TLR7 stood at 215%.

Regarding `CCCCc1nc2c(N)nc3ccccc3c2n1Cc1ccc(CNCC(C)(C)C2CC2)cc1` [Compound No. 63-41, 2-butyl-1-(4-(((2-cyclopropyl-2-methylpropyl)amino)methyl)benzyl)-1H-imidazo[4,5-c]quinoline-4-amine], the “TLR8 (% of Compound No. 63-00 EC50 Value)” value at TLR8 was determined as 43%. In addition, the “TLR7 (% of Compound No. 63-00 EC50 Value)” value at TLR7 is 360%.

As for `CCCCc1nc2c(N)nc3ccccc3c2n1Cc1ccc(CNCCC2(C)CC2)cc1` [Compound No. 63-42, 2-butyl-1-(4-(((2-(1-methylcyclopropyl)ethyl)amino)methyl)benzyl)-1H-imidazo[4,5-c]quinolin-4-amine], at TLR8, the “TLR8 (% of Compound No. 63-00 EC50 Value)” value was determined as 85% and the “fold increase of TLR8 agonist potency compared to Compound No. 63-00 (IMDQ)” value is on record as “slightly improved to slightly inferior”. Further, the “TLR7 (% of Compound No. 63-00 EC50 Value)” value at TLR7 was determined as 445%.

Turning to `CCCCc1nc2c(N)nc3ccccc3c2n1Cc1ccc(CNCCCC2CC2)cc1` [Compound No. 63-43, 2-butyl-1-(4-(((3-cyclopropylpropyl)amino)methyl)benzyl)-1H-imidazo[4,5-c]quinolin-4-amine], the “TLR8 (% of Compound No. 63-00 EC50 Value)” value at TLR8 came out at 77%. In addition, the “TLR7 (% of Compound No. 63-00 EC50 Value)” value at TLR7 was determined as 440%.

Consider `CCCCc1nc2c(N)nc3ccccc3c2n1Cc1ccc(CNCC2CCC2)cc1` [Compound No. 63-44, 2-butyl-1-(4-(((cyclobutylmethyl)amino)methyl)benzyl)-1H-imidazo[4,5-c]quinolin-4-amine], for which, at TLR8, the “TLR8 (% of Compound No. 63-00 EC50 Value)” value is 17% and the “fold increase of TLR8 agonist potency compared to Compound No. 63-00 (IMDQ)” value came out at 5.9 fold. On TLR7, the “TLR7 (% of Compound No. 63-00 EC50 Value)” value was 120% and the “fold loss of TLR7 agonist potency compared to Compound No. 63-00 (IMDQ)” value is reported as 1.2 fold.
